What was measured:
CFTE29o- = assay: Apoptosis, in situ end labeling of DNA strand breaks, CFTR-deficient cells; assay type: cell-based, human; conditions: for apoptosis by fluorescein staining: no TNF-α
Method: (§1) Adherent epithelial cell lines, CFTE29o- and 9HTEo-, grown on coated coverslips for 24 hours, were treated with fenretinide at the same concentrations used to determine IL-8 release as indicated supra. After a 24-hour incubation with fenretinide, cells were stimulated with TNF-α (experimental group) or with Cisplatin at […] (as a positive control) for an additional 24 hours. Cells were fixed in 4% paraformaldehyde in PBS at pH 7.4 for one hour at room temperature. Cells were subsequently washed and permeabilized using 0.1% TRITON™ X-100 in 0.1% citrate buffer for 2 minutes on ice. After being washed, the coverslips were individually removed from 24-well plates and cells were incubated for one hour at 37° C. with terminal deoxynucleotidyl transferase (Tdt) enzyme conjugated to fluorescein (Roche Diagnostics, Indianapolis, Ind.) for visualization. A negative slide was produced by incubating a slide of both cell lines with buffer minus the Tdt enzyme. The Tdt enzyme binds to the free hydroxyl end of DNA strand breaks. Subsequently, cells were washed twice with PBS and coverslips were placed on slides in the presence of the anti-fade medium VECTASHIELD® to facilitate fluorescence preservation. Slides were individually labeled with numbers to keep the investigator blinded to the outcome until after the slides were reviewed. Four randomly selected fields were visualized at 400× (total magnification) using a fluorescence microscopy and cells that appeared brightly flourescent were counted. Pictures were taken to estimate the number of positive to negative cells per field.

[1] = system: CFTR-deficient cells (CFTE29o-); assay: IL-8 release (ELISA) by CFTR-deficient human tracheal epithelial cells; assay type: cell-based
Method: (§2) General Procedures. Normal (9HTEo-) and CFTR-deficient human tracheal epithelial cells (CFTE29o- ΔF508 CFTR) were used in the analysis disclosed herein and grown in pre-coated T-75 flasks in a medium containing 10% fetal bovine serum (FBS). Cells were re-fed every 2-3 days until they reached confluency. Adherent monolayers were released from the plastic surface after treatment with trypsin-EDTA (Sigma-Aldrich Co., St. Louis, Mo.) and split into 24-well plates for about 24 hours before receiving treatments.
(§3) Treatment with Fenretinide and TNF-α. Normal and CFTR-deficient cells were treated with fenretinide (Wang, et al. (2001) Cancer Res. 61:5102-5105; Erdreich-Epstein, et al. (2002) supra) at doses known to effectively increase cellular ceramide content in cell culture. Normal (9HTEo-; 0.4×10^6 cells/well) and CFTR-deficient human epithelial cells (CFTE29o- ΔF508 CFTR; 0.6×10^6 cells/well) were incubated for 24 hours at 37° C. in 5% CO2 with 1.25 μM, 2.5 μM or 5 μM fenretinide in Eagle's minimum essential medium (MEM) containing 10% fetal bovine serum (FBS). Subsequently, the medium was replaced with fresh MEM 2% FBS containing the same initial concentrations of fenretinide and cells were grown for an additional 24 hours to characterize the impact of fenretinide on IL-8 release in a non-inflammatory condition. To characterize the inflammatory condition, cells were treated with MEM 2% FBS containing 1.25 μM, 2.5 μM or 5 μM fenretinide and concurrently stimulated with human recombinant TNF-α (10 ng/mL) for another 24 hours. All experiments included unstimulated negative control wells.
IL-8 Release and Cell Viability Assays. Supernatants were collected from treated cells and the amount of IL-8 released into the medium was determined using an enzyme-linked immunosorbent assay (ELISA) kit (OPTEIA™ Human IL-8 Set; BD PHARMINGEN™, San Diego, Calif.). Briefly, 96-well plates were coated overnight with capture antibody, washed with PBS, 0.05% TWEEN®-20 and coated with PBS, 10% heat-inactivated FBS. Known concentrations of IL-8 (standard) and supernatants containing released IL-8 were added as aliquots into appropriate wells, incubated for 2 hours and subsequently decanted from the wells. Enzyme-conjugated anti-IL-8 antibody was added and incubated for 1 hour. After washing the plate, a substrate for the enzyme was added and the plate incubated for 30 minutes. The reaction was stopped using a 2NH2SO4 solution and the absorbance was read at 450 nm.

normal cells (9HTEo-) = assay: IL-8 release (ELISA) by normal human tracheal epithelial cells; assay type: cell-based
Method: as §2, §3
IL-8 Release and Cell Viability Assays. Supernatants were collected from treated cells and the amount of IL-8 released into the medium was determined using an enzyme-linked immunosorbent assay (ELISA) kit (OPTEIA™ Human IL-8 Set; BD PHARMINGEN™, San Diego, Calif.). Briefly, 96-well plates were coated overnight with capture antibody, washed with PBS, 0.05% TWEEN®-20 and coated with PBS, 10% heat-inactivated FBS. […] The reaction was stopped using a 2NH2SO4 solution and the absorbance was read at 450 nm.

[2] = oral, once a day, 28-day courses, cited from earlier work
[3] = system: CFTR-deficient human epithelial cells (CFTE29o-); assay: Proliferation (viable cell counts) of CFTR-deficient human epithelial cells; assay type: cell-based
Method: CFTE29o- (0.6×10^6/well in a 24-well plate) cells were incubated with 1.25 μM, 2.5 μM or 5 μM of fenretinide for 24 hours in a MEM containing 10% FBS. Vehicle control wells contained ethanol (EtOH) at concentrations equivalent to those used with fenretinide treatments.
CFTE29o- cells were incubated with 1.25 μM, 2.5 μM or 5 μM of fenretinide for 24 hours in a MEM containing 10% FBS. After 24 hours, the medium was replaced by MEM 2% FBS containing the same concentrations of fenretinide and stimulated with TNF-α for another 24 hours. Viable cell counts were determined.
as §3
(§4) Cell viability was assessed using a 3-(4,5-dimethylthiazol-2-yl)-2,5-diphenyltetrazolium bromide (MTT) assay according to standard methods (Mosmann, T. (1983) J. Immunol. Methods. 65:55-63). […] Cells were incubated for 4 hours at 37° C., supernatant was aspirated, HCl-isopropanol solution (0.04 N HCl in isopropanol) was added, and after 5 minutes the optical densities were measured at 540 nm. […]

9HTEo- = assay: Apoptosis, in situ end labeling of DNA strand breaks, non-cystic fibrosis cells; assay type: cell-based, human; conditions: for apoptosis by fluorescein staining: no TNF-α
Method: as §1

Pseudomonas aeruginosa = assay: Pulmonary infection of CFTR knockout and wild-type mice with P. aeruginosa; assay type: in vivo, mouse
Text: Homogenous C57BL/6 Cftr^unc knockout mice generated by insertion of a stop codon in exon 10 of Cftr gene are well-known in the art (Snouwaert, et al. (1992) Science 257:1083-8; Gosselin, et al. (1998) Am. J. Respir. Crit. Care Med. 157:1253-62). Mice used in these studies represent offsprings from B6-Cftr^unc (+/−) mice backcrossed to C57BL/6 mice for 10 to 12 generations.
Housing Conditions. B6-Cftr (−/−) and B6-Cftr (+/+) mice were housed on corn cob bedding (Anderson, Maumee, Ohio) and fed sterile PEPTAMEN® (Clintec Nutrition, Deerfield, Ill.), a low-residue liquid diet which was previously shown to prevent intestinal obstruction in Cftr^unc knockout mice (Eckman, et al. (1995) Am. J. Physiol. 269:L625-L630). A standard diet was used (Gosselin, et al. (1998) supra), wherein the caloric content of the diet was 420 KJ/100 mL and an adult mouse consumes approximately 15 mL/day. In order to maintain the sterility of the diet, it was changed daily. For one month prior to pulmonary infection with P. aeruginosa, mice were provided fenretinide (prepared in PEPTAMEN®) in the drinking water at 5 mg/kg body weight. The dose was set for each individual mouse based on its weight and adjusted every week (e.g., 147 μg/mouse/day for 30 gram mouse).
Infection of Mice. […] The number of viable P. aeruginosa entrapped in agar beads was determined by plating serial dilutions of the homogenized bead suspension on TSA plates. […]
Bronchoalveolar Lavages (BAL). […] Alveolar cells were centrifuged, resuspended in 1 mL PBS, stained with Turk's solution and counted. The proportions of macrophages, lymphocytes, and polymorphonuclear leukocytes (PMN) were calculated after counting 200 alveolar cells on cytospin preparations stained with DIFF-QUICK® (American Scientific Products, McGaw Park, Ill.).
Measurement of Bacterial Burden. […] Serial 10-fold dilutions of homogenates were plated on petri dishes containing TSA and the number of colony-forming units (CFU) per organs was counted after overnight incubation at 37° C. […]

[4] = system: normal human epithelial cells (9HTEo-); assay: Proliferation (viable cell counts) of normal human epithelial cells; assay type: cell-based; conditions: pro-inflammatory and non-inflammatory state, in particular 2.5 μM and higher
Method: 9HTEo- (0.4×10^6/well in a 24-well plate) cells were incubated with 1.25 μM, 2.5 μM or 5 μM of fenretinide for 24 hours in a MEM containing 10% FBS. Vehicle control wells contained ethanol (EtOH) at concentrations equivalent to those used with fenretinide treatments.
9HTEo- cells were incubated with 1.25 μM, 2.5 μM or 5 μM of fenretinide for 24 hours in a MEM containing 10% FBS. After 24 hours, the medium was replaced by MEM 2% FBS containing the same concentrations of fenretinide and stimulated with TNF-α for another 24 hours.
Treatment with Fenretinide and TNF-α. Normal and CFTR-deficient cells were treated with fenretinide (Wang, et al. (2001) Cancer Res. 61:5102-5105; Erdreich-Epstein, et al. (2002) supra) at doses known to effectively increase cellular ceramide content in cell culture. […]
as §4

[5] = CFTR-deficient and wild-type mice, 5 mg/kg for one month before challenge, 3 days post-infection

For `N.N.[Cl][Pt][Cl]` [cisplatin], the “apoptotic effect of positive control” value (CFTE29o-; CFTR-deficient epithelial cells, as opposed to non-cystic fibrosis cells) was “resistant to the apoptotic effects”.
With `CC1=C(/C=C/C(C)=C/C=C/C(C)=C/C(=O)Nc2ccc(O)cc2)C(C)(C)CCC1` [fenretinide, all-trans-N-(4-hydroxyphenyl)retinamide] the “apoptosis in the presence of TNF-α” value (CFTE29o-; CFTR-deficient cells, TNF-α, 1.25 and 2.5 μM) was “no enhancement of apoptosis”, the “apoptosis by fluorescein staining” value (CFTE29o-; CFTR-deficient cells, 1.25 μM) was “no morphology of apoptosis, weak fluorescence was observed” and the “apoptosis by fluorescein staining” value (CFTE29o-; CFTR-deficient cells, 2.5 μM) was “early stage apoptosis”. The “IL-8 level as % of the TNF-α-stimulated value, dose-dependent reduction” value ([1]; CFTE29o-, TNF-α 10 ng/mL, fenretinide 1.25-5 μM, greatest reduction) was 70%, the “threshold level for significance of IL-8 reduction” value ([1]; CFTE29o-, TNF-α-stimulated) was 2.5 µM and the activity at 1.25 µM ([1]; Homo sapiens, Epithelial cell, CFTE29o-, TNF-α 10 ng/mL, 1.25 μM fenretinide, not significantly different from control, read-out: IL-8 level as % of control (TNF-α only)) was 86%. The “increase of IL-8 levels in the absence of TNF-α stimulation” value ([1]; cystic fibrosis cells, no TNF-α, fenretinide 1.25-5 μM, dose-dependent) was 2- to 8 fold, the “IL-8 maximum level as % of that secreted by TNF-α-stimulated cells” value (normal cells (9HTEo-); 9HTEo-, TNF-α 10 ng/mL, fenretinide 1.25-5 μM) was 139% and the “threshold level of IL-8 enhancement” value (normal cells (9HTEo-); 9HTEo-, TNF-α-stimulated) was 2.5 µM. For the same compound, the “enhancement in basal IL-8 release” value (normal cells (9HTEo-); non-cystic fibrosis cells, no TNF-α, all treatment doses) was “greater than 14 fold”, the “subjects with side effects” value ([2]; subjects 2-21 years with neuroblastoma) was 15 of the 45 and the “time to reversal of side effects after discontinuation of treatment” value [2] was no more than 7 days. For the same compound, the cell numbers ([3]; CFTR-deficient cells, non-inflammatory condition, 2.5 μM) was “decrease in CFTR-deficient epithelial cell numbers”, the cell proliferation ([3]; CFTR-deficient cells, pro-inflammatory and non-inflammatory state, in particular 2.5 μM and higher) was “significant decrease in cell proliferation” and the cell numbers ([3]; cystic fibrosis cells, 1.25 μM) was “did not show a decrease in cell numbers”. For the same compound, the “apoptosis in the presence of TNF-α” value (9HTEo-; TNF-α, both doses (1.25 and 2.5 μM)) was “significant apoptosis”, the “apoptosis by fluorescein staining” value (9HTEo-; 1.25 μM) was “weaker fluorescence and an earlier stage of apoptosis” and the “apoptosis by fluorescein staining” value (9HTEo-; 2.5 μM) was “strong fluorescence and classic apoptotic morphology”. For the same compound, the “bacterial burden in lungs” value (Pseudomonas aeruginosa; [5]) was “reduced”, the “recruitment of inflammatory cells to the lungs” value (Pseudomonas aeruginosa; [5]) was “decrease in the recruitment of inflammatory cells” and the “reduction in P. aeruginosa cell numbers as compared to controls” value (Pseudomonas aeruginosa; cystic fibrosis mice pretreated with fenretinide) was “approximately 40%”. The cell proliferation [4] was “significant decrease in cell proliferation”.
